The record followed here is a melting point compilation (Tetko et al.; mined from patent text by program, amines drawn as free bases though some values may be those of a salt).

Where only a bound is given, the exact number is not on record here.

In turn, `CCCCc1nc2c(N)nc3cccnc3c2n1CCNC(=O)C(N)CC(C)C` (stereo not given) registered a melting point of 60 to 65 °C. `Clc1ccc(COC(C=Cc2ccccc2)Cn2ccnc2)c(Cl)c1` (stereo not given) came in with a melting point of 134 °C. `Nc1nc(Nc2cccc(C(F)(F)F)c2)nc(OCC(F)(F)F)n1`: the melting point fell in the range of 133 to 135 °C. Take `O=C(CC1CCN(C(=O)OCc2ccccc2)CC1)c1c[nH]c2ccccc12`: the melting point is 122 °C. In the case of `CCc1cc(C(C)=O)nn1-c1ccc([N+](=O)[O-])cc1` it was 93 to 95 °C; in that of `NC(=O)c1nc(-c2ccc(O)cc2)cs1`, 223 to 227 °C.

With `CC(=C(C#N)C#N)c1ccc2cc(N3CCN(C(=O)OC(C)(C)C)CC3)ccc2c1`, the melting point is 169 to 171 °C.

`CCCC1COC(c2cc(F)c(C(F)(F)Oc3ccc(-c4cc(F)c(OC(F)(F)F)c(F)c4)c(F)c3)c(F)c2)OC1` (stereo not given) returned a melting point of 61 °C. The value for `Cc1ccc(NC(N)=S)nc1` was 178 to 181 °C. `Cc1nn(C)cc1C(=O)Nc1ccc(OCC(C)(C)C)c(C#N)c1` returned a melting point of 193 to 194 °C. `O=C(CCCCCBr)Nc1ccc(O)cc1`: the melting point lay in the range of 124 to 125 °C. In turn, `O=C(O)c1ccc2c(c1)S(=O)(=O)c1ccccc1O2` registered a melting point of 286 °C. `COC(=O)c1c(-c2ccc(F)cc2)c2c3ccccc3ccn2c1C(C)C`: the melting point lay in the range of 170 to 173 °C. The value for `N=C(NO)c1ccnc(N)c1` was 188 °C. Consider `COC(=O)c1nc(Cl)c(F)c(NC(C)=O)c1Cl`, for which the melting point fell in the range of 183 to 186 °C. Regarding `CNC(=O)c1ccc(-c2ccc3oc(C4CCN(C(=O)OC(C)C)CC4)nc3c2)cc1F`, the melting point is 116 to 120 °C. On to `O=c1cc(-c2ccccc2)c2cc(C(c3ccccc3)n3ccnc3)ccc2[nH]1` (stereo not given), for which the melting point was 253 °C.

Consider `O=C(/C=C/c1ccc([N+](=O)[O-])cc1)c1cc2ccccc2oc1=O`, for which the melting point lay within 272 to 274 °C. Compound `Nc1ccccc1NC(=O)c1ccc(COc2ccc3ncnc(Nc4cccc(Br)c4)c3c2)cc1` displayed a melting point of 215 to 218 °C. In turn, `CCOc1cc(Cn2cc(CCC(=O)O)c(-c3ccccc3)c2)cc(OCc2csc(-c3cnccn3)n2)c1` gave a melting point of 97 to 98 °C. Consider `COc1cc(Nc2c(C#N)cnc3c(Br)csc23)c(Cl)cc1Cl`, for which the melting point was 265 to 266 °C. The compound `Fc1ccc(C#CCCC#Cc2ccccn2)cc1` returned a melting point of 68 to 69 °C. Compound `CSc1nc2cc(C)nn2c2ncccc12` registered a melting point of 190 °C.

The compound `CC(=O)O[C@@H](C)C(=O)Nc1c(C(=O)c2cc(C)ccn2)[nH]c2cc(Cl)ccc12` registered a melting point of 213 to 214 °C. As for `N=C(N)Nc1nc(CO)cs1`, the melting point fell in the range of 163 to 165 °C. For `O=C1N(Cc2ccc(-c3ccno3)cc2)c2ccccc2C12COc1cc3c(cc12)OCCO3` (stereo not given), the melting point is 209 to 212 °C.

As for `O=C1CNCc2cc(-c3ccc(F)cc3)c(C=NO)c3ccn1c23`, the melting point is 277 to 279 °C. The compound `O=C(Nc1ccc(OCCO)cc1)c1ccc(N2CCNCC2)cc1` displayed a melting point of over 260 °C.

`C[C@@]1(c2ccccc2)OC(c2ccccc2)=NC[C@H]1OC(=O)Nc1ccccc1` (racemic) registered a melting point of 180 °C. In the case of `CCCCCCCCCCC1(CCCCCCCCCC)c2cc(C=Cc3ccncc3)ccc2-c2ccc(N(c3ccccc3)c3ccccc3)cc21` it was 88.4 to 89.3 °C; in that of `Clc1c(Cl)c(Cl)c2c(nc(Cl)n2COCCOCc2ccccc2)c1Cl`, 95 °C. In turn, `CN(C)CC(c1ccc(OCc2ccccc2)cc1)C1(O)CCCCC1` (stereo not given) had a melting point of 140 to 142 °C. `CC(C)(C)NC(=O)NOCC(O)CN1CCCCC1` (stereo not given) had a melting point of 71 to 73 °C. The compound `COc1c(C)cc(C)cc1CNC(=O)CCl` showed a melting point of 124 °C. In the case of `CN(c1cccc2cc(C3=NCC(CCN4C(=O)CCC4=O)S3)[nH]c12)S(=O)(=O)c1cccs1` (stereo not given), the melting point lay within 189 to 191 °C. Compound `C=CC(=O)N1Cc2cc(OC)ccc2SC(Cl)C1` (stereo not given) gave a melting point of 97.5 to 99.5 °C. `CC(=O)Nc1ccc(OCCCN2C(=O)c3ccccc3C2=O)cc1` displayed a melting point of 154 to 156 °C.

`CCN(C=O)c1nc2ccc(CCc3ccco3)cc2o1` yielded a melting point of 54 to 58 °C.

`Clc1ccc(CC2(c3cccnc3)OCCO2)c(Cl)c1` showed a melting point of 76 to 78 °C. As to `CCCc1ccnc2c(=O)[nH]c(-c3cc(S(=O)(=O)NCCN4CCNC4=O)ccc3OCC)nc12`, the melting point was 221 to 222 °C. For the compound `Cc1nc2nc(-c3ccc(C4(N)CCC4)cc3)c(-c3ccccc3)cn2n1`, the melting point was 207 °C. `CSC1=Nc2ccc(Cl)cc2Nc2cscc21` yielded a melting point of 152 to 154 °C.

`COC(=O)c1cc(NC(=O)OC(C)(C)C)c([N+](=O)[O-])cc1I` gave a melting point of 126 °C. In turn, `CC(=O)OCC(=O)c1ccc(F)cc1F` returned a melting point of 54 to 56 °C. With `CNC(=O)OCc1nc(C(C)C)c(Sc2cc(Cl)cc(Cl)c2)n1C`, the melting point was in the range of 112 to 113 °C.

For `NC(=O)c1cnn2cccc2c1NCC1CCCO1` (stereo not given), the melting point worked out at 120 °C. As to `Cc1cc(C)n(C)c(=O)c1C#N`, the melting point lay within 202 to 205 °C.

Regarding `O=C(O)c1ccc(C=CC(=O)c2ccccc2)cc1`, the melting point lay within 222 to 224 °C. `CN(C)C(C)(C)c1ccc(-c2nc(Nc3ccc(-n4cncn4)cc3)ncc2C#N)cc1` had a melting point of 235 to 237 °C. In the case of `COc1nc(OC)nc(OC(C(=O)O)C(C)(C)C)n1` (stereo not given) it was 37 to 40 °C; in that of `O=c1nc(-c2c(F)cccc2F)oc(=O)n1-c1cc(Cl)c(Oc2ncc(OC(F)F)cc2Cl)c(Cl)c1`, 154 to 156 °C.

`COC(=O)C1=Cc2cc(O)ccc2S(=O)(=O)CC1` returned a melting point of 176 to 178 °C. The value for `O=C1NC(=O)c2c1cc1ccc3c(c1c2-c1ccc(F)cc1)OCC3` was over 310 °C; that for `CC(=O)C12OC1CC1C3CC=C4CC(O)CCC4(C)C3CCC12C` (stereo not given) was 194 to 196 °C; that for `CCCc1c(OCCCOc2ccc(C(=O)C(=O)O)cc2)ccc(C(=O)O)c1O` was 182 to 185 °C. `CCOP(=O)(/C=C/c1cn(-c2ccccc2)nc1OCc1ccc(OCc2nc(-c3ccc(OC)c(C(=O)OC)c3)oc2C)c(OC)c1)OCC` came in with a melting point of 144 to 145 °C.

The compound `C=C(C)n1c(=O)n(-c2ccc(CCNC[C@H](O)COc3ccc(O)cc3)cc2)c2ncccc21` returned a melting point of 62 to 64 °C. Compound `COc1ccc(-c2ccc3c(c2)c2ccc(Cl)nc2n3S(=O)(=O)c2ccccc2)cc1` gave a melting point of 176 to 178 °C. The compound `COC(=O)/C(=C/c1ccc(OCCN(C)c2nc3ccccc3o2)cc1)OCC(=O)O` had a melting point of 111 to 112 °C.

In turn, `O=C(O)c1cc(=O)c2cccc(/C=C/c3ccc(OCCCCc4ccccc4)cc3F)c2o1` had a melting point of 73.4 to 73.5 °C. In the case of `Cc1ncc(NC(=O)OCc2ccccc2)c(=O)n1CC(=O)NC(Cc1ccccc1)C(=O)C(F)(F)F` (stereo not given), the melting point fell in the range of 115 to 118 °C. The value for `COc1ccc(C=C(C#N)c2ccncc2)cc1OC1CCCC1` was 125 to 127 °C; that for `CON=C(c1ccc(OC(C)(C)C(=O)O)c(C)c1)c1cccs1` was 108 °C. `CCN(CC)CCOc1ccc(Nc2ncc3c(n2)N(C)C(=O)N(c2c(Cl)cccc2Cl)C3)cc1` yielded a melting point of 123 to 124 °C. Turning to `NC(=O)c1cc2cc(OCC3CO3)ccc2o1` (stereo not given), the melting point lay in the range of 153 to 155 °C. In turn, `CN(C)Cc1nc(C(=O)O)nn1-c1ccc(Cl)cc1C(=O)c1ccccc1Cl` showed a melting point of 110 to 113 °C. `COC(=O)C1CCc2cc(OC)ccc2C1=O` (stereo not given): the melting point was 82 to 84 °C. Consider `CCC#CN1CCC(O)(Cc2ccccc2)CC1`, for which the melting point is 51 to 53 °C.

Consider `O=C(O)Cc1cc(O)c2c(c1)CCc1ccccc1C2=O`, for which the melting point was 149 to 151 °C. The value for `CCOc1ccnc2[nH]ccc12` was 176 to 178 °C; that for `COC(C)(C)c1cc(C(C)(C)OC)cc(C(C)(C)OC)c1` was 44 °C; that for `CCCCC1OC(=O)c2cc(NC(C)=O)ccc21` (stereo not given) was 138 to 139 °C. The value for `COCS(=O)(=O)c1ccc(C(CC2CCCC2)C(=O)O)cc1` (stereo not given) was 184 to 187 °C; that for `COc1cc(N)c(F)cc1Br` was 60 to 62 °C.

`COC(=O)c1ccc2nc(C)n(Cc3ccc(Cl)cc3OC)c2n1` yielded a melting point of 166 to 168 °C.

`Cc1cccc2nc3c(cc12)sc1cccc(Cl)c13` had a melting point of 143 to 146 °C. In the case of `CS[C@@H]1CC(=O)N(Cc2ccc(Oc3ccc(F)cc3)nc2)C1`, the melting point lay within 94 to 95 °C. In turn, `O=[N+]([O-])N=C1SCCN1Cc1ccncc1` displayed a melting point of 151 to 152 °C. The compound `CN1C(=O)C(c2ccc(OC(F)F)cc2)(c2ccc(F)c(OCCC=C(F)F)c2)N=C1N` (stereo not given) registered a melting point of 139 to 140 °C. Compound `CC1=NN=C(C=Cc2ccc(F)cc2)c2cc3c(cc2C1)OCO3` registered a melting point of 141 to 144 °C. `CN1C[C@@H]2c3ccccc3Oc3ccc(Cl)cc3[C@H]2C1=O` (relative stereo) showed a melting point of 151 °C. Turning to `O=S(=O)(c1ccc(O)cc1)c1ccccn1`, the melting point is 148 °C. `CCOC(=O)c1c(N2CCN(C(=O)c3cccs3)CC2)c2cc(F)cnc2n(Cc2cccc(F)c2)c1=O`: the melting point was 113 °C. With `CCCCCCN1CCN(Cc2ccc(N)cc2)C(=O)C1=O`, the melting point fell in the range of 99 to 102 °C. With `CC(C)COc1ccccc1C(N)=O`, the melting point was 125 to 128 °C. `COCC(COC)N1CCc2cc(Nc3ncc(Cl)c(Nc4ccc(C(N)=O)cc4OC)n3)c(OC)cc2CC1` yielded a melting point of 220 to 223 °C. `O=C(c1ccc([N+](=O)[O-])cc1)c1ccc2[nH]c(=O)cc(-c3cccc(Cl)c3)c2c1` gave a melting point of 227 °C. `O=c1oc2ccccc2c(=O)n1CCCCCCCCCO` registered a melting point of 125 to 128 °C. The value for `CCOC1CC2(C)C(CCC3C4CCC(C(=O)CBr)C4(C)CC(=O)C32)CC1O` (stereo not given) was 74 to 78 °C; that for `Cn1cc(C#N)nc1-c1ncc[nH]1` was 238 to 239 °C.

The term melting point denotes the temperature, or range, at which the solid turns liquid.
